Results reported in paper PMC4999848 (Toxins, 2016).
Values joined by “and” are separate entries in the source; they are usually repeats but may differ in a detail not shown here. Equal values may be shown once.

Legend:
pancreatin = assay: Deacetylation of 3/15ADON by pancreatin; format: in vitro ADME, porcine; settings: pancreatin 1.23 mg/mL, PBS pH 7.4, 37 °C, substrate 100 μM
Protocol: Stock solutions of DON, 3ADON and 15ADON at 2 mg/mL were prepared in absolute ethanol and stored at −20 °C. For deacetylation assay, 3- or 15ADON were incubated with cells, explants, bacteria or digestive enzymes after being diluted in PBS^++ at a final concentration of 100 μM. PBS^++ solution containing only ethanol (at 1.5% final concentration) or DON (at 100 μM) were used in parallel as negative and positive control, respectively. For cells and explants, deacetylation assay take place in 6-well plates, wells being filled with 2 mL of PBS^++ containing either ethanol, DON, 3- or 15ADON. For fecal bacteria and digestive enzyme assay, deacetylation assay was conducted in 2 mL Eppendorf tubes filled with 1.5 mL of PBS^++ containing either ethanol, DON, 3- or 15ADON. In vitro intestinal digestion by luminal enzymes was performed using porcine enzymes from Sigma-Aldrich and physiological conditions. […] In all cases, aliquots of the reaction solution were collected immediately (i.e., “time zero” sample) or after the indicated time period at 37 °C and analyzed by HPLC. […]
Deacetylation was monitoring both in term of disappearance of 3- or 15ADON and formation of DON. […] Quantification was based on calibration with the corresponding standard using Millinium Software (Waters, Saint Quentin Falavier, France).

human fecal bacteria = assay: Deacetylation of 3/15ADON by human fecal bacteria; format: in vitro ADME; settings: for Disappearance of 3/15ADON, specific activity: fecal bacteria, anaerobic, 37 °C, substrate 100 μM; for % of deacetylation: human fecal bacteria; for Contribution to total deacetylation activity: Bacteria: percentage of sum of specific activities (Figure 8)
Protocol: The whole procedure involving fecal bacteria (including the use of fecal bacteria for the deacetylation assay) was performed in an anaerobic cabinet (Coy Laboratory Products, Grass Lake, MI, USA). Human fecal bacteria were isolated from three volunteers (men) working in the department, 40–50 years of age. Stools were collected fresh in a sterile container and were immediately introduced into the anaerobic cabinet. Feces samples were taken by pushing a cut-off disposal 1 mL pipette tip into the inner part of the stools. Samples were then mechanically suspended in 9 mL of degassed PBS^++. Homogenates were allowed to decant for ten minutes to eliminate insoluble matter, and supernatants (1 mL aliquots) were transferred to sterile Eppendorf tubes and used for deacetylation assay.
(§1) Stock solutions of DON, 3ADON and 15ADON at 2 mg/mL were prepared in absolute ethanol and stored at −20 °C. For deacetylation assay, 3- or 15ADON were incubated with cells, explants, bacteria or digestive enzymes after being diluted in PBS^++ at a final concentration of 100 μM. PBS^++ solution containing only ethanol (at 1.5% final concentration) or DON (at 100 μM) were used in parallel as negative and positive control, respectively. For cells and explants, deacetylation assay take place in 6-well plates, wells being filled with 2 mL of PBS^++ containing either ethanol, DON, 3- or 15ADON. For fecal bacteria and digestive enzyme assay, deacetylation assay was conducted in 2 mL Eppendorf tubes filled with 1.5 mL of PBS^++ containing either ethanol, DON, 3- or 15ADON. In vitro intestinal digestion by luminal enzymes was performed using porcine enzymes from Sigma-Aldrich and physiological conditions. Briefly, 3- or 15ADON were incubated with pepsin (at 1.6 mg/mL corresponding to 900 U/mL), trypsin (at 0.35 mg/mL corresponding to 6000 U/mL), pancreatic lipase (at 0.75 mg/mL corresponding to 18 U/mL) or pancreatin (at 1.23 mg/mL, lipase activity >10 U/mL, protease activity >100 U/mL, amylase activity >100 U/mL). Except for pepsin for which the digestion was conducted in HCl solution at 10 mM (pH 2.3), in vitro digestion was performed in PBS^++ (pH 7.4). Finally, deacetylation assay was also performed with commercial pooled S9 fractions from human liver, small intestine and kidneys as well as with pure recombinant human CES1 and CES2. S9 fractions and CES1/2 were used at 0.1 mg/mL and 5 μg/mL (corresponding to CES activity >20 U/mL), respectively. In all cases, aliquots of the reaction solution were collected immediately (i.e., “time zero” sample) or after the indicated time period at 37 °C and analyzed by HPLC. […] In all cases, the experiments were conducted in triplicate (n = 3).
(§2) Deacetylation was monitoring both in term of disappearance of 3- or 15ADON and formation of DON. Measurement of DON, 3ADON and 15ADON concentrations was performed by reversed-phase HPLC using Waters Alliance System equipped with a Waters 2690 XE separation module and a Waters 996 photodiode array detector (Waters, Saint Quentin Falavier, France). The separation was achieved by mean of a LiChroCart column (125 mm × 4 mm) packed with 5 μm RP-18 Purospher gel (Merck, Darmstadt, Germany) and equipped with a LiChroCart precolumn (4 mm × 4 mm) packed with the same material (Merck). The precolumn and column were placed in room temperature. The elution procedure was carried out at 0.7 mL·min^−1 by a methanol–water solvent, using the following conditions: 40% methanol during 2 min followed by an increase in methanol to 50% at 2.1 min.

Caco-2 cells = assay: Deacetylation of 3/15ADON by Caco-2 cells; format: in vitro ADME, human; settings: for Disappearance of 3/15ADON, specific activity: Caco-2, 37 °C, substrate 100 μM; for % deacetylated: Caco-2, 6 h incubation, 100 μM
Protocol: A498, Caco-2, T84 and HepG2 cells were used as models of human renal, small intestinal, colonic and hepatic cells, respectively. Cells were routinely grown in culture media (Dulbecco’s Modified Eagle Medium (DMEM), DMEM:F12 mixture and Minimum Essential Media (MEM) for A498/Caco-2, T84 and HepG2 cells, respectively) supplemented with 10% fetal calf serum and 1% antibiotics (streptomycin–penicillin solution). Cells were grown in 25 cm^2 ventilated flask maintained at 37 °C in a 5% CO2 incubator. Cells were routinely passed using trypsin-EDTA solution. For deacetylation experiments, cells were seeded onto 6-well plates at an initial density of 200,000 cells/cm^2. HepG2 and A498 were used 3–4 days post-seeding when confluence was reached. Caco-2 and T84 cells were let to differentiate for 10–14 days post-seeding before being used. In all cases, cells were washed three times with sterile phosphate buffer saline PBS^++ (PBS containing 100 mg/L of calcium and magnesium salts) before deacetylation assay.
Stock solutions of DON, 3ADON and 15ADON at 2 mg/mL were prepared in absolute ethanol and stored at −20 °C. For deacetylation assay, 3- or 15ADON were incubated with cells, explants, bacteria or digestive enzymes after being diluted in PBS^++ at a final concentration of 100 μM. PBS^++ solution containing only ethanol (at 1.5% final concentration) or DON (at 100 μM) were used in parallel as negative and positive control, respectively. For cells and explants, deacetylation assay take place in 6-well plates, wells being filled with 2 mL of PBS^++ containing either ethanol, DON, 3- or 15ADON. For fecal bacteria and digestive enzyme assay, deacetylation assay was conducted in 2 mL Eppendorf tubes filled with 1.5 mL of PBS^++ containing either ethanol, DON, 3- or 15ADON. In vitro intestinal digestion by luminal enzymes was performed using porcine enzymes from Sigma-Aldrich and physiological conditions. Briefly, 3- or 15ADON were incubated with pepsin (at 1.6 mg/mL corresponding to 900 U/mL), trypsin (at 0.35 mg/mL corresponding to 6000 U/mL), pancreatic lipase (at 0.75 mg/mL corresponding to 18 U/mL) or pancreatin (at 1.23 mg/mL, lipase activity >10 U/mL, protease activity >100 U/mL, amylase activity >100 U/mL). Except for pepsin for which the digestion was conducted in HCl solution at 10 mM (pH 2.3), in vitro digestion was performed in PBS^++ (pH 7.4). Finally, deacetylation assay was also performed with commercial pooled S9 fractions from human liver, small intestine and kidneys as well as with pure recombinant human CES1 and CES2. […] In all cases, aliquots of the reaction solution were collected immediately (i.e., “time zero” sample) or after the indicated time period at 37 °C and analyzed by HPLC. […]

[1] = Deacetylation of 3/15ADON by kidney S9 fraction; format: in vitro ADME, human; settings: for Disappearance of 3/15ADON, specific activity: S9 kidney 0.1 mg/mL, 37 °C, substrate 100 μM; for Activity of renal S9 fraction on 3/15ADON: in words
Protocol: as §1
as §2, with “[…] Quantification” for “The elution procedure”, “based on calibration with the corresponding standard” for “carried out at 0.7 mL·min^−1 by a methanol–water solvent,”, “Millinium Software (Waters, Saint Quentin Falavier, France).” for “the following conditions: 40% methanol during 2 min followed by an increase in methanol to 50% at 2.1 min.”

| Structure (SMILES) | Disappearance of 3/15ADON, specific activity (pancreatin) [pmol/min/mg] | Disappearance of 3/15ADON, specific activity (human fecal bacteria) [pmol/min/mg] | % of deacetylation (human fecal bacteria; 6 h incubation, 100 μM) | % of deacetylation (human fecal bacteria; 48 h incubation) | Contribution to total deacetylation activity: Bacteria (human fecal bacteria) [%] | Disappearance of 3/15ADON, specific activity (Caco-2 cells) | % deacetylated (Caco-2 cells) | Disappearance of 3/15ADON, specific activity [1] | Activity of renal S9 fraction on 3/15ADON [1] |
| --- | --- | --- | --- | --- | --- | --- | --- | --- | --- |
| CC(=O)O[C@@H]1C[C@]2(C)[C@@]3(CO)[C@H](O)C(=O)C(C)=C[C@H]3O[C@H]1[C@@]21CO1 [3ADON, 3-acetyldeoxynivalenol] | 24 ± 16 | 34 ± 0.9 | 22.6% ± 15.9% | 82.1% ± 21.9% | 2.6 | 479 pmol/min/mg and 479 ± 97 pmol/min/mg | 69.1% ± 14.3% | 33 pmol/min/mg and 33 ± 8.3 pmol/min/mg | minor activity, if any |
| CC(=O)OC[C@]12[C@H](O)C(=O)C(C)=C[C@H]1O[C@@H]1[C@H](O)C[C@@]2(C)[C@]12CO2 [15ADON, 15-acetyldeoxynivalenol] | 26 ± 17 | 5.8 ± 1.3 | no activity | 14.9% ± 3.2% | 0.9 | 152 pmol/min/mg and 152 ± 38 pmol/min/mg | 22.4% ± 5.5% | 16 pmol/min/mg and 16 ± 5.8 pmol/min/mg | minor activity, if any |
